Here are results for two compounds from patent US8329940B2, “18β-glycyrrhetinic acid derivatives and synthetic method thereof” (Kaohsiung Medical University, priority 2009, dated 2012).

The structures appear in SMILES notation. Read-outs that look alike come from different tables or passages of the source. A value given as a limit tells only on which side of the number the result lay.

In data set [1] the test system is superoxide anion formation from rat neutrophils stimulated with fMLP/CB. Nature of the data set: Superoxide anion formation in rat neutrophils stimulated by fMLP/CB. Type of data set: cell-based. Conditions: rat neutrophils stimulated with fMLP (0.3 μM)/CB (5 μg/mL), 30 min. How it is done:
Compound stock solution (30 mM in DMSO) is prepared and stored at −25° C. before experiment. In the superoxide anion generation experiments, neutrophils isolated from the peripheral blood of the rats are stimulated with formyl-Met-Leu-Phe (fMLP, 0.3 μM)/Cytochalasin B (CB, 5 μg/mL) for 30 min in the presence of cytochrome c, and the superoxide anion generation is measured in terms of superoxide dismutase-inhibitable cytochrome c reduction.

Data set [2] relates to accumulation of NO2− in RAW 264.7 cells stimulated with LPS. In words: Nitrite (NO2−) accumulation in RAW 264.7 cells stimulated with LPS (Griess reaction). Type of data set: cell-based, Murine. The following applies: for IC50: RAW 264.7 cells stimulated with LPS, 24 h, read-out: IC50 (B) accumulation of NO2− in RAW 264.7. How it is done:
(§1) Nitrite is a stable metabolite of NO in the media based on Griess reaction. […] To determine whether the inhibition of NO production in RAW 264.7 cells is attributed to the decrease of iNOS protein expression, Western blotting analysis is performed. Unstimulated cells expressed very low level of iNOS protein, whereas LPS 50 ng/mL induced a large amount of iNOS protein expression. […] Thus, the blockade of iNOS transcription has a critical role as evidenced from the parallelism of the inhibition of NO production and iNOS protein expression by compound 14.

The test system of data set [3] is plasmid pBR322DNA. Nature of the data set: Inhibition of oxidative DNA damage by O2− from xanthine/xanthine oxidase (agarose gel electrophoresis). Conditions: 500 μM compound, xanthine (2 mM)/xanthine oxidase (0.7 U/mL), 20 min, 37° C. How it is done:
A mixture of the plasmid pBR322DNA ([…]) and xanthine (2 mM)/xanthine oxidase (0.7 U/mL) in 10 mM phosphate buffer (pH 7.4) is incubated for 20 min with 500 μlM of superoxide dismutase, quercetin, or compounds 2, 6, 7, 13, 14, and 20 in a total volume of 20 μL at 37° C., respectively. After incubating for 20 min, a 15 μL aliquot of mixture is loaded into 1.0% agarose gel containing ethidium bromide (0.05 μg/mL) in Tris-acetate-ethylenediaminetetraacetic acid (EDTA) buffer. The electrophoresis is carried out for 30 min at 100 V. Then the gels are illuminated with UV light and photographed.
ROS have been known to damage many biological macromolecules, for instance, with DNA being a significant target. The ability of 18β-GA derivatives to inhibit the DNA damage caused by O2^− (generated by xanthine (XA)/XO) is studied in vitro by agarose gel electrophoresis. […] For determined the antioxidant activities of these compounds, the radical scavenging activities and XO inhibitory activities of these compounds are analyzed.

Data set [4] concerns the target xanthine oxidase (XO) (Homo sapiens, UniProt P47989). In words: Xanthine oxidase activity assay. Conditions: xanthine as substrate, 25° C. The class given is biochemical. Here is the method:
(§2) The xanthine oxidase activity with xanthine as the substrate is measured at 25° C., according to the protocol of Kong and associates (Cell Mol. […] After preincubation at 25° C. for 15 min, the reaction is initiated by addition of 60 μL of substrate solution (150 μM xanthine in the same buffer). The reaction is monitored at 295 nm. The xanthine oxidase activity is expressed as micromoles of uric acid per minute.

The test system of data set [5] is superoxide anion formation from rat neutrophils stimulated with PMA. In words: Superoxide anion formation in rat neutrophils stimulated by PMA. Type of data set: cell-based. Conditions: Neutrophil; rat neutrophils stimulated with PMA.
In data set [6] the test system is iNOS protein expression. Nature of the data set: iNOS protein expression in LPS-stimulated RAW 264.7 cells (Western blot). Type of data set: cell-based, Murine. Conditions: RAW 264.7, LPS 50 ng/mL. Here is the method: as §1
In data set [7] the target is xanthine oxidase (XO). Nature of the data set: Xanthine oxidase activity assay. The following applies: xanthine as substrate, 25° C., 295 nm. Type of data set: biochemical. Here is the method:
as §2

xanthine oxidase (XO), sequence (P47989 whole entry, species assumed): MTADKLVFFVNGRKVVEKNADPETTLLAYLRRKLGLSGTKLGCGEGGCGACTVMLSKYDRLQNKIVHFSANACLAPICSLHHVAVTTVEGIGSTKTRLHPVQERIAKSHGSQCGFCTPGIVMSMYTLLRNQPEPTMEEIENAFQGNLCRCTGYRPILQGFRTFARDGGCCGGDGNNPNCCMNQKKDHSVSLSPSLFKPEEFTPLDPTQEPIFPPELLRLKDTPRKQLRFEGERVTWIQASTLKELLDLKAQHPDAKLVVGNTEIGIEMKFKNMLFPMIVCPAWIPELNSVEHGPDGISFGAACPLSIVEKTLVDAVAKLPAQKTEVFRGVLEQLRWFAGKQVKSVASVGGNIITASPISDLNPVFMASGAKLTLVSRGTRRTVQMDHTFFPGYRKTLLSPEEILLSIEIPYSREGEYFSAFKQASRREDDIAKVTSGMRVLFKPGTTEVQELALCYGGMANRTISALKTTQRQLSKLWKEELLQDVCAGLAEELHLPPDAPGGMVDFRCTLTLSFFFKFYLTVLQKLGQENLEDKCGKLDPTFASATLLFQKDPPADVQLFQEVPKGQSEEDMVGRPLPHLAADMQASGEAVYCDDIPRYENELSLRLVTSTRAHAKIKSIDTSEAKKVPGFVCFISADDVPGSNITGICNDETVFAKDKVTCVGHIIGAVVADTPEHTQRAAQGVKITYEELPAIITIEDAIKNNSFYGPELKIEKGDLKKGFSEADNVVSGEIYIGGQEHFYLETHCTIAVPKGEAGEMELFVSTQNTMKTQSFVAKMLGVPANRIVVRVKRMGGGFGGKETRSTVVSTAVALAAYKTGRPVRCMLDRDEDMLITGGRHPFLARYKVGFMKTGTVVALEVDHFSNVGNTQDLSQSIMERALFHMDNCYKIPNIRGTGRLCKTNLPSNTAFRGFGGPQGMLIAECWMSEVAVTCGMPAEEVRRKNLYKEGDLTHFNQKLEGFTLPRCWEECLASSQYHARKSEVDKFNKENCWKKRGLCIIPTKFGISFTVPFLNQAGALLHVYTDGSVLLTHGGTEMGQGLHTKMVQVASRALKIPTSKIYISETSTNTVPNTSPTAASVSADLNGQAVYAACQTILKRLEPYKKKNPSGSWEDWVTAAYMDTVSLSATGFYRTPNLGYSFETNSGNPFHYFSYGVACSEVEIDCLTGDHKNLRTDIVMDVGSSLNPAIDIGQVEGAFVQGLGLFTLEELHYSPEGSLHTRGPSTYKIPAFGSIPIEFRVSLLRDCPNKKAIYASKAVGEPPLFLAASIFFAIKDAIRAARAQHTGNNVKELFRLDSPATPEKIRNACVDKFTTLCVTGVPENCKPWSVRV
xanthine oxidase (XO) (Homo sapiens, UniProt P47989), sequence (P47989 whole entry, species assumed): as above

Regarding `CC1(C)C(=O)CC[C@]2(C)[C@H]3C(=O)C=C4[C@@H]5C[C@@](C)(C(=O)O)CC[C@]5(C)CC[C@@]4(C)[C@]3(C)CC[C@@H]12` [Compound 2], the values for the IC50 in data set [1] and in data set [2] were 10.3 ± 5.2 µM and greater than 30 µM, respectively. Moreover, the “% of inhibition of NO2− accumulation (in parentheses)” value in data set [2] (at the highest concentration, RAW 264.7, LPS) is recorded as 45.6 ± 9.1%. Also, the “inhibitory effect on NO accumulation in the media induced by LPS” value in data set [2] (each at 30 μM, RAW 264.7) is recorded as “about 40%”. Further, the “protective effect on oxidative DNA damage caused by O2−” value in data set [3] is reported as “significant protective effects”. The “inhibition of XO activity” value in data set [4] was “weakly inhibit”.

For the compound `C=C(C)C1CCC2(C)C(C(=O)C=C3C4CC(C)(C(=O)NC(C)C)CCC4(C)CCC32C)C1(C)CCC(=O)OC` (stereo not drawn) [Compound 14], the melting point is 80 to 85 °C. For the same compound, the half-maximal inhibitory concentration (IC50) in data set [2] (Mus musculus, RAW264.7) worked out at 13.1 ± 5 µM. This compound also showed an IC50 in data set [5] of 15.6 ± 1.7 µM. For the same compound, the “protective effect on oxidative DNA damage caused by O2−” value in data set [3] is recorded as “significant protective effects”. Besides, the “inhibition of iNOS protein expression” value in data set [6] is “significantly inhibited the iNOS protein expression”. This compound came in with an IC50 in data set [7] of 192 ± 2.7 µM.
